Broadly, the IC50 is the midpoint of a concentration-inhibition curve. The half-life is the time in which the quantity being followed falls by half. Low readings indicate rapid decline, high ones slow decline.

Peptide text beside a SMILES is read from it.

The target of the first data set is T1, Dipeptidyl peptidase 4 (Homo sapiens, UniProt P27487). Put plainly: Inhibition of recombinant human DPP4 expressed in baculovirus expression system using Ala-Pro-AMC as substrate by fluorometric analysis.
Conditions: not given
Target sequence in this assay (P27487 whole entry): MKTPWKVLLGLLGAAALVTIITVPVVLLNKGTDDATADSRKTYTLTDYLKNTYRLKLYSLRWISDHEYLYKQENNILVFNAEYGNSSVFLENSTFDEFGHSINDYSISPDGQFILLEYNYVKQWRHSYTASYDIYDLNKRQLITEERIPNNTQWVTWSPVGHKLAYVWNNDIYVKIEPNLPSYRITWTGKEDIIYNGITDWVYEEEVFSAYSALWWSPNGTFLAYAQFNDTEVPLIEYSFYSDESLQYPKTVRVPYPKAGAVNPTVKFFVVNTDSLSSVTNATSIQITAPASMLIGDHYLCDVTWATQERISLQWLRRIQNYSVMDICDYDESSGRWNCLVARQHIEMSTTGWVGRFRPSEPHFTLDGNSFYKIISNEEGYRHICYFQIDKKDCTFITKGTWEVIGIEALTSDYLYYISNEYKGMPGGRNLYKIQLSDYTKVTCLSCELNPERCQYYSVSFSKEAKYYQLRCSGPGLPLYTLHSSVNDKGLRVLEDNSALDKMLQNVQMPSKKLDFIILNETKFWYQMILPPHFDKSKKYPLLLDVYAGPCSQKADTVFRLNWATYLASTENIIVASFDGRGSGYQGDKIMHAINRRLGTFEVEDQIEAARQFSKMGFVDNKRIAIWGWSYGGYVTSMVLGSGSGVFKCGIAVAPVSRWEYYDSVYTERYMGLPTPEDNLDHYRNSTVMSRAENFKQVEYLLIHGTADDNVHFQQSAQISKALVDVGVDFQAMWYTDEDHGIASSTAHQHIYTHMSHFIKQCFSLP
With `Cc1cc(-c2cn([C@@H]3CN[C@H](C(=O)N4CCC(F)(F)C4)C3)nn2)ccc1F`, the IC50 amounted to 1320 nM.
On to `COC(=O)c1cn([C@@H]2CN[C@H](C(=O)N3CCC(F)(F)C3)C2)nn1`, for which the half-inhibitory concentration (IC50) turned out to be 720 nM.
On the same count and under the same terms, to `O=C([C@@H]1C[C@H](n2cc(-c3ccccc3)nn2)CN1)N1CCC(F)(F)C1` belongs 660 nM.

Another data set deals with T1, Dipeptidyl peptidase 4. Put plainly: Inhibition of recombinant human DPP4 using H-Gly-Pro-AMC as substrate after 30 mins by fluorometric analysis.
Conditions: not given
Target sequence in this assay (P27487 whole entry): as above
Regarding `O=C(CNC(=O)C1CCCN(S(=O)(=O)c2ccccc2)C1)Nc1ccc(Cl)cc1` (centres undefined), the 50% inhibitory concentration (IC50) turned out to be 94.8 nM.

In the next data set the target is T1, Dipeptidyl peptidase 4. Nature of the data set: Inhibition of recombinant human DPP4 using H-Gly-Pro-AMC as substrate preincubated for 15 mins followed by substrate addition measured for 20 mins with 1 min interval.
Conditions: not given
Target sequence in this assay (P27487 whole entry): as above
In the case of `O=C(N/N=C/c1cccc2ccccc12)c1[nH]nc2c1CCCC2`, the IC50 is 3440 nM.
Same read-out and setting: under `O=C(N/N=C/c1c(O)ccc2ccccc12)c1n[nH]c2c1CCCC2` stands 2120 nM.

The target in the next data set is T1, Dipeptidyl peptidase 4. Put plainly: Inhibition of DPP4 (unknown origin).
Conditions: not given
Target sequence in this assay (P27487 whole entry, looked up): as the sequence (P27487 whole entry) above
`CC#CCn1c(N2CCC[C@@H](N)C2)cc(=O)n(Cc2cn(CCC(=O)OC)nn2)c1=O` returned an IC50 of 64.3 nM.

Another data set deals with T1, Dipeptidyl peptidase 4. Put plainly: Inhibition of recombinant human DPP4 pre-incubated for 30 mins before Gly-Pro-Aminomethylcoumarin substrate addition.
Conditions: not given
Target sequence in this assay (P27487 whole entry): as above
In the case of `CC(C)=CCn1c(N2CCCC(N)C2)nc2c1c(=O)n(Cc1ccccc1C#N)c(=O)n2C` (centres undefined), the IC50 was determined as 19.6 nM.

The target in another data set is T1, Dipeptidyl peptidase 4. Nature of the data set: Inhibition of recombinant human DPP4 using Gly-Pro-AMC as substrate after 1 hr by fluorescence assay.
Conditions: not given
Target sequence in this assay (P27487 whole entry): as above
For the compound `N[C@@H](CCn1cc(-c2ccncc2)nn1)Cc1cc(F)c(F)cc1F`, the IC50 came out at 14 nM.

The next data set deals with T1, Dipeptidyl peptidase 4. Put plainly: Inhibition of recombinant human DPP4 using Gly-Pro-AMC as substrate after 30 mins by fluorescence assay.
Conditions: not given
Target sequence in this assay (P27487 whole entry): as above
As to `Brc1nc2n(n1)CC(c1cc3ccccc3o1)=NN2`, the half-inhibitory concentration (IC50) came to 28000 nM.

A further data set deals with T1, Dipeptidyl peptidase 4. Put plainly: Inhibition of DPP4 (unknown origin) using Gly-Pro-AMC as substrate preincubated for 4 secs followed by substrate addition and measured after 30 mins by […] assay.
Conditions: not given
Consider `O=c1cc(-c2ccc(O)cc2)oc2cc(O)cc(O)c12` [APIGENIN], for which half-maximal inhibition (IC50) was put at 140 nM.
In turn, `O=C(O)/C=C/c1ccc(O)c(O)c1` [CAFFEIC ACID] showed an IC50 of 3370 nM.
For `Oc1cc(O)c2cc(O)c(-c3ccc(O)c(O)c3)[o+]c2c1` [CYANIDIN CHLORIDE], the IC50 was 1410 nM.
Turning to `O=C(O[C@@H]1Cc2c(O)cc(O)cc2O[C@@H]1c1cc(O)c(O)c(O)c1)c1cc(O)c(O)c(O)c1` [EPIGALOCATECHIN GALLATE], 10200 nM corresponded to half-maximal inhibition (IC50).
On the same count and under the same terms, under `C[C@@H]1O[C@@H](OC[C@H]2O[C@@H](Oc3cc(O)c4c(c3)O[C@H](c3ccc(O)c(O)c3)CC4=O)[C@H](O)[C@@H](O)[C@@H]2O)[C@H](O)[C@H](O)[C@H]1O` [ERIOCITRIN] stands 10400 nM; under `O=c1cc(-c2ccccc2)oc2ccccc12` [FLAVONE], 170 nM; under `O=C(O)c1cc(O)c(O)c(O)c1` [GALLIC ACID], 4650 nM.
Still for that read-out and setting: to `O=c1c(-c2ccc(O)cc2)coc2cc(O)cc(O)c12` [GENISTEIN] belongs 480 nM; to `COc1ccc([C@@H]2CC(=O)c3c(O)cc(O)cc3O2)cc1O` [HESPERETIN], 280 nM.
The same measure, in the same setting: to `O=c1c(O)c(-c2ccc(O)cc2)oc2cc(O)cc(O)c12` [KAEMPFEROL] belongs 490 nM; to `OC[C@H]1O[C@@H](Oc2cc3c(O)cc(O)cc3[o+]c2-c2ccc(O)c(O)c2)[C@H](O)[C@@H](O)[C@@H]1O` [KUROMANIN], 420 nM; to `O=c1cc(-c2ccc(O)c(O)c2)oc2cc(O)cc(O)c12` [LUTEOLIN], 120 nM.
In the case of `COc1cc(-c2[o+]c3cc(O)cc(O)c3cc2O)cc(OC)c1O` [MALVIDIN CHLORIDE], the IC50 came out at 1410 nM.
On to `O=C1C[C@@H](c2ccc(O)cc2)Oc2cc(O)cc(O)c21` [NARINGENIN], for which the half-maximal inhibitory concentration (IC50) was found to be 240 nM.
On the same count and under the same terms, to `O=c1c(O)c(-c2ccc(O)c(O)c2)oc2cc(O)cc(O)c12` [QUERCETIN] belongs 2920 nM.
In turn, `Oc1ccc(/C=C/c2cc(O)cc(O)c2)cc1` [RESVERATROL] gave a half-maximal inhibitory concentration (IC50) of 0.6 nM.

For the next data set, the target named is T2, Dipeptidyl peptidase 4 (Sus scrofa, UniProt P22411). Put plainly: Inhibition of porcine DPP4 after 30 mins by luminescence assay.
T2 sequence (P22411 whole entry): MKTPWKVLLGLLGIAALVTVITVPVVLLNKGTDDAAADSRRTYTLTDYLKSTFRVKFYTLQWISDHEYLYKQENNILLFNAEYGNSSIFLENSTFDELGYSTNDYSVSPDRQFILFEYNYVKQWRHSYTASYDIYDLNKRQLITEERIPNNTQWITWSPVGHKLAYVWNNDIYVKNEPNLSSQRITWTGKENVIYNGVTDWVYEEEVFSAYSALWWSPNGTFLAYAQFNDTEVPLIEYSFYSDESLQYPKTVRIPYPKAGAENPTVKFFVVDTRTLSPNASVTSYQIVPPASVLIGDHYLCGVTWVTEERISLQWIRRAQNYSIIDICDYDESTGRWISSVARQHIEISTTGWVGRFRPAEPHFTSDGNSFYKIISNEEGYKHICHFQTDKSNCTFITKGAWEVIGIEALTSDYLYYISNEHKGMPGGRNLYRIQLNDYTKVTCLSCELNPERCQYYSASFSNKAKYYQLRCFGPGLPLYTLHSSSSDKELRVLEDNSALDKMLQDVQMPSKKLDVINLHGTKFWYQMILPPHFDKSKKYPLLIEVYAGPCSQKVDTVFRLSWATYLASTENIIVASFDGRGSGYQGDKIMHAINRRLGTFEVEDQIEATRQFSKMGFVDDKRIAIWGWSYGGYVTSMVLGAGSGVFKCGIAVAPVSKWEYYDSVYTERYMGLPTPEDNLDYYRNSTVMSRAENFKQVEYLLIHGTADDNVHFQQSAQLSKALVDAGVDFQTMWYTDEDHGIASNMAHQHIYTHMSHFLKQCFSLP
Conditions: not given
The compound `O=C1CC(c2ccc(O)cc2)Oc2cc(O)cc(O)c21` (centres undefined) yielded a 50% inhibitory concentration (IC50) of 2500 nM.
On the same count and under the same terms, under `COc1cc2oc(-c3ccc(O)cc3)cc(=O)c2c(O)c1OC` [CIRSIMARITIN] stands 430 nM; under `COc1c(O)cc2oc(-c3ccc(O)cc3)cc(=O)c2c1O` [HISPIDULIN], 490 nM.

For another data set, the target named is T2, Dipeptidyl peptidase 4. Put plainly: Inhibition of porcine kidney DPP4.
Conditions: not given
Turning to `CC[C@H](C)[C@H](N)C(=O)N[C@@H](CC(C)C)C(=O)N[C@@H](C)C(=O)N1CCC[C@H]1C(=O)O` (H-ILAP-OH), the IC50 is 43000 to 159000 nM.
`CC(C)C[C@H](NC(=O)[C@@H](N)CC(C)C)C(=O)N[C@@H](C)C(=O)N1CCC[C@H]1C(=O)O` (H-LLAP-OH): the IC50 was 43000 to 159000 nM.
Compound H-MAGVDHI-OH gave a 50% inhibitory concentration (IC50) of 43000 to 159000 nM.

In the next data set the target is T1, Dipeptidyl peptidase 4. Put plainly: Inhibition of DPP4 (unknown origin) using Gly-Pro-pNA as substrate after 60 mins.
Conditions: not given
`CC(C)[C@H](N)C(=O)N[C@@H](Cc1c[nH]c2ccccc12)C(=O)O` [VALYLTRYPTOPHAN] (H-Val-Trp-OH) registered an IC50 of 65700 nM.

Tested on in the next data set: not listed separately
Nature of the data set: Elimination half life in human. As to conditions: in vivo.
`N#C[C@@H]1C[C@@H]2C[C@@H]2N1C(=O)[C@@H](N)C12CC3CC(CC(C3)C1)C2` came in with a half-life of 2 to 4 h.
On the same count and under the same terms, under `CC1(C)CCC(=O)N(C[C@@H](N)CC(=O)N2CCc3c(nc(C(F)(F)F)nc3C(F)(F)F)C2)C1` stands 16.7 to 21.3 h.
In turn, `Cn1c(=O)cc(N2CCC[C@@H](N)C2)n(Cc2ccccc2C#N)c1=O` [ALOGLIPTIN] showed a half-life of 21.1 h.
With `Cc1cc2ncc(C(=O)NCC(C)(C)NCC(=O)N3CCC[C@H]3C#N)cn2n1` [ANAGLIPTIN], the half-life fell in the range of 5.8 to 6.2 h.
`CC(C)(C)OC[C@@H]1C(=O)NCCN1C(=O)C[C@H](N)Cc1cc(F)c(F)cc1F` [EVOGLIPTIN]: the half-life lay in the range of 32.5 to 39.8 h.
On the same count and under the same terms, under `O=C([C@@H]1C[C@H](N2CCN(c3ncccn3)CC2)CN1)N1CCC(F)(F)C1` [GOSOGLIPTIN] stands 63.5 h.
Same read-out and setting: to `CC#CCn1c(N2CCC[C@@H](N)C2)nc2c1c(=O)n(Cc1nc(C)c3ccccc3n1)c(=O)n2C` [LINAGLIPTIN] belongs 10 to 40 h; to `CS(=O)(=O)n1cc2c(n1)CN([C@H]1CO[C@H](c3cc(F)ccc3F)[C@@H](N)C1)C2` [OMARIGLIPTIN], 11 to 22 h.
For `N[C@@H](CC(=O)N1CCn2c(nnc2C(F)(F)F)C1)Cc1cc(F)c(F)cc1F` [SITAGLIPTIN], the half-life lay within 8 to 24 h.
On the same count and under the same terms, to `Cc1cc(N2CCN([C@@H]3CN[C@H](C(=O)N4CCSC4)C3)CC2)n(-c2ccccc2)n1` [TENELIGLIPTIN] belongs 26.9 h.
Same read-out and setting: to `Cn1c(=O)cc(N2CCC[C@@H](N)C2)n(Cc2cc(F)ccc2C#N)c1=O` [TRELAGLIPTIN] belongs 38.4 to 54.3 h.

(Values after ChEMBL document CHEMBL4229387, “Recent progress of the development of dipeptidyl peptidase-4 inhibitors for the treatment of type 2 diabetes mellitus” (Eur J Med Chem, 2018).)
